Data on 29 compounds can be found in the supplement of paper PMC7695840.

In general, pIC50 refers to the negative decadic logarithm of the IC50, by convention in mol/L. Higher therefore signals a small IC50.

pIC50: −log10 of the molar value. Structures can show the parent of a compound that is named as a salt.

Test [1] has as its system Staphylococcus aureus MW2 (mecA+). Nature of the test: IC50 (growth, competition assay). Conditions: cefoxitin: subinhibitory. In a few lines: (§1)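 Two fluorescent S. aureus MW2 strains, one carrying and one lacking the resistance gene, were pre-induced, mixed 1:1 and grown unshaken in LB in 1536-well plates for 20 h at 37 °C and 90% humidity with a subinhibitory drug dose set each day. Compounds were tested on five- or nine-point 2-fold gradients in two dye-swapped replicates. DsRed (540/590) and GFP (485/520) signals were scaled per plate between the medians of single-strain controls, and No Treatment was then set to 0.5. For each strain, IC50 was taken as the dose that halved the No Treatment signal, or else the maximal signal.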

The test system of test [2] is Staphylococcus aureus MW2 delta-mecA (mecA-). Nature of the test: IC50 (growth, competition assay). Conditions: cefoxitin: subinhibitory. In a few lines:
as §1

With `CN1CCN(CCCN2c3ccccc3Sc3ccc(C(F)(F)F)cc32)CC1` [Trifluoperazine dihydrochloride], the pIC50 in test [1] (fluorescent label: DsRed) is 4.29; in test [1] (fluorescent label: GFP) it was 4.28; in test [2] (fluorescent label: DsRed), 4.80; in test [2] (fluorescent label: GFP), 4.78.

Turning to `COc1ccc(COc2ccc(Cc3cnc(N)nc3N)cc2OC)cc1` [GW2580], the pIC50 was 4.82 in test [1] (fluorescent label: DsRed), 4.79 in test [1] (fluorescent label: GFP), above 5.01 in test [2] (fluorescent label: DsRed) and above 5.01 in test [2] (fluorescent label: GFP).

`Nc1ccn([C@@H]2O[C@H](CO)[C@@H](O)C2(F)F)c(=O)n1` [Gemcitabine hydrochloride]: the negative-log IC50 (pIC50) in test [1] (fluorescent label: DsRed), in test [1] (fluorescent label: GFP), in test [2] (fluorescent label: DsRed) and in test [2] (fluorescent label: GFP) was above 5.01 throughout.

As for `CCN1CCN(c2cc3c(cc2F)c(=O)c(C(=O)O)cn3C2CC2)CC1` [BAYTRIL], the pIC50 in test [1] (fluorescent label: DsRed), in test [1] (fluorescent label: GFP), in test [2] (fluorescent label: DsRed) and in test [2] (fluorescent label: GFP) was above 5.01 in each case.

For `C[C@@H](O)[C@H]1C(=O)N2C(C(=O)O)=C(S[C@@H]3CN[C@H](C(=O)N(C)C)C3)[C@H](C)[C@H]12` [MERREM], the pIC50 in test [1] (fluorescent label: DsRed) is 4.05; in test [1] (fluorescent label: GFP) it was 4.01; in test [2] (fluorescent label: DsRed), 4.80; in test [2] (fluorescent label: GFP), 4.93.

On to `CC[C@H](C)C[C@H](C)CCCCCCCCC(=O)N[C@H]1C[C@@H](O)[C@@H](NCCN)NC(=O)[C@@H]2[C@@H](O)CCN2C(=O)[C@H]([C@H](O)CCN)NC(=O)[C@H]([C@H](O)[C@@H](O)c2ccc(O)cc2)NC(=O)[C@@H]2C[C@@H](O)CN2C(=O)[C@H]([C@@H](C)O)NC1=O` [Caspofungin acetate], for which the negative-log IC50 (pIC50) in test [1] (fluorescent label: DsRed) was 4.44; in test [1] (fluorescent label: GFP), 4.38; in test [2] (fluorescent label: DsRed) it was 4.84; in test [2] (fluorescent label: GFP), above 5.01.

For the compound `COc1ncc(-c2ccc3nccc(-c4ccnnc4)c3c2)cc1NS(=O)(=O)c1ccc(F)cc1F`, the pIC50 in test [1] (fluorescent label: DsRed), in test [1] (fluorescent label: GFP), in test [2] (fluorescent label: DsRed) and in test [2] (fluorescent label: GFP) was above 5.01 throughout.

For the compound `Cn1sc(=O)n(Cc2ccccc2)c1=O` [TDZD-8], the pIC50 in test [1] (fluorescent label: DsRed), in test [1] (fluorescent label: GFP), in test [2] (fluorescent label: DsRed) and in test [2] (fluorescent label: GFP) was above 5.01 in each case.

Consider `C[C@H]1[C@H](C)CC[C@]2(C(=O)O)CC[C@]3(C)C(=CC[C@@H]4[C@@]5(C)C[C@@H](O)[C@H](O)[C@@](C)(CO)[C@@H]5[C@H](O)C[C@]43C)[C@H]12` [MADECASSIC ACID], for which the pIC50 in test [1] (fluorescent label: DsRed) was 4.27; in test [1] (fluorescent label: GFP), 4.26; in test [2] (fluorescent label: DsRed), 4.32; in test [2] (fluorescent label: GFP) it was 4.52.

For `CO/N=C(\C(=O)N[C@@H]1C(=O)N2C(C(=O)O)=C(CSC(=O)c3ccco3)CS[C@H]12)c1csc(N)n1` [EXCENEL], the pIC50 in test [1] (fluorescent label: DsRed), in test [1] (fluorescent label: GFP), in test [2] (fluorescent label: DsRed) and in test [2] (fluorescent label: GFP) was above 5.01 in each case.

Consider `Cc1ccc(S(=O)(=O)C=CC#N)cc1` [Bay 11-7082], for which the pIC50 in test [1] (fluorescent label: DsRed), in test [1] (fluorescent label: GFP), in test [2] (fluorescent label: DsRed) and in test [2] (fluorescent label: GFP) was above 5.01 each time.

For `COc1ccc(CCN(C)CCCOc2ccc(S(=O)(=O)c3c(C(C)C)n(C)c4ccccc34)cc2)cc1OC`, the pIC50 was 4.83 in test [1] (fluorescent label: DsRed), 4.83 in test [1] (fluorescent label: GFP), above 5.01 in test [2] (fluorescent label: DsRed) and above 5.01 in test [2] (fluorescent label: GFP).

Take `Cc1ccc(S(=O)(=O)N[C@@H](Cc2ccccc2)C(=O)CCl)cc1` [N-p-Tosyl-L-phenylalanine chloromethyl ketone]: the pIC50 in test [1] (fluorescent label: DsRed), in test [1] (fluorescent label: GFP), in test [2] (fluorescent label: DsRed) and in test [2] (fluorescent label: GFP) was above 5.01 in each case.

As to `CCCCCCCCCCCCCCCC(=O)O[C@@H]1[C@@H](O)[C@@H](O)[C@@H]([C@H](NC(=O)[C@@H]2C[C@@H](CCC)CN2C)[C@H](C)Cl)O[C@@H]1SC` [Clindamycin palmitate HCl], the pIC50 in test [1] (fluorescent label: DsRed), in test [1] (fluorescent label: GFP), in test [2] (fluorescent label: DsRed) and in test [2] (fluorescent label: GFP) was above 5.01 in each case.

In the case of `CC1CCc2cc(F)cc3c(=O)c(C(=O)O)cn1c23` (stereo unspecified) [Flumequine], the pIC50 in test [1] (fluorescent label: DsRed), in test [1] (fluorescent label: GFP), in test [2] (fluorescent label: DsRed) and in test [2] (fluorescent label: GFP) was above 5.01 in each case.

In the case of `O=C(O)c1ccc(-n2nc(-c3ccccc3O)nc2-c2ccccc2O)cc1` [Deferasirox (Exjade)], the pIC50 in test [1] (fluorescent label: DsRed) is 4.04; in test [1] (fluorescent label: GFP), 4.24; in test [2] (fluorescent label: DsRed), 4.65; in test [2] (fluorescent label: GFP) it was 4.61.

Turning to `CCCCC[C@H](CC(=O)NO)C(=O)N[C@H](C(=O)N1CCC[C@H]1CO)C(C)C` [ACTINONIN], the pIC50 in test [1] (fluorescent label: DsRed) is 4.56; in test [1] (fluorescent label: GFP) it was 4.42; in test [2] (fluorescent label: DsRed) it was above 5.01; in test [2] (fluorescent label: GFP), above 5.01.

In the case of `COC(=O)C1=C(C)NC(C)=C(C(=O)OCCCN2CCC(c3ccccc3)(c3ccccc3)CC2)[C@H]1c1cccc([N+](=O)[O-])c1` [S-(+)-Niguldipine hydrochloride], the pIC50 in test [1] (fluorescent label: DsRed) is above 5.01; in test [1] (fluorescent label: GFP), 4.94; in test [2] (fluorescent label: DsRed), above 5.01; in test [2] (fluorescent label: GFP), above 5.01.

Consider `C[N+](C)(C)CC(O)CC(=O)[O-]` (racemic) [DL-Carnitine hydrochloride], for which the pIC50 in test [1] (fluorescent label: DsRed) is below 3.82; in test [1] (fluorescent label: GFP), below 3.82; in test [2] (fluorescent label: DsRed), below 3.82; in test [2] (fluorescent label: GFP) it was 3.86.

Regarding `CC(=O)Oc1ccc(Cl)c2cccnc12` [SILITAL], the pIC50 in test [1] (fluorescent label: DsRed) was 4.76; in test [1] (fluorescent label: GFP), 4.53; in test [2] (fluorescent label: DsRed), 4.81; in test [2] (fluorescent label: GFP), above 5.01.

As to `COc1cc2c(Oc3ccc(NC(=O)C4(C(=O)Nc5ccc(F)cc5)CC4)cc3F)ccnc2cc1OCCCN1CCOCC1`, the pIC50 was 4.38 in test [1] (fluorescent label: DsRed), 4.24 in test [1] (fluorescent label: GFP), 4.88 in test [2] (fluorescent label: DsRed) and 4.92 in test [2] (fluorescent label: GFP).

With `COc1cc(/C=C/C(=O)CC(=O)/C=C/c2ccc(O)c(OC)c2)ccc1O` [CURCUMIN], the pIC50 in test [1] (fluorescent label: DsRed) is 4.57; in test [1] (fluorescent label: GFP), 4.30; in test [2] (fluorescent label: DsRed), above 5.01; in test [2] (fluorescent label: GFP), above 5.01.

`O=C(C=Cc1ccc(O)cc1)c1ccccc1O` [2',4-DIHYDROXYCHALCONE]: the pIC50 in test [1] (fluorescent label: DsRed) is 4.39; in test [1] (fluorescent label: GFP), 4.24; in test [2] (fluorescent label: DsRed), 4.57; in test [2] (fluorescent label: GFP), 4.62.

On to `COC1=C(OC)C(=O)C(CCCCCCCCCCO)=C(C)C1=O` [IDEBENONE], for which the pIC50 in test [1] (fluorescent label: DsRed) is 4.64; in test [1] (fluorescent label: GFP) it was 4.54; in test [2] (fluorescent label: DsRed), 4.81; in test [2] (fluorescent label: GFP) it was 4.82.

As for `CCC(C)(C)C(=O)O[C@H]1C[C@@H](C)C=C2C=C[C@H](C)[C@H](CC[C@@H]3C[C@@H](O)CC(=O)O3)[C@H]21` [ZOCOR], the pIC50 in test [1] (fluorescent label: DsRed) is 3.89; in test [1] (fluorescent label: GFP), 3.94; in test [2] (fluorescent label: DsRed), 4.32; in test [2] (fluorescent label: GFP), 4.24.

On to `CC(C)(c1ccc(O)cc1)c1ccc(O)cc1` [BISPHENOL A], for which the pIC50 in test [1] (fluorescent label: DsRed) was 4.37; in test [1] (fluorescent label: GFP), 4.19; in test [2] (fluorescent label: DsRed), above 5.01; in test [2] (fluorescent label: GFP), above 5.01.

For `CC(C)[C@H]1c2ccc(F)cc2CC[C@@]1(CCN(C)CCCc1nc2ccccc2[nH]1)OC(=O)C1CC1` [NNC 55-0396], the pIC50 is 4.83 in test [1] (fluorescent label: DsRed), 4.83 in test [1] (fluorescent label: GFP), above 5.01 in test [2] (fluorescent label: DsRed) and above 5.01 in test [2] (fluorescent label: GFP).

Take `CC1(C)CCC2=C(O1)c1ccccc1C(=O)C2=O` [beta-Lapachone]: the pIC50 in test [1] (fluorescent label: DsRed) is 4.89; in test [1] (fluorescent label: GFP), 4.55; in test [2] (fluorescent label: DsRed) it was above 5.01; in test [2] (fluorescent label: GFP), above 5.01.

As for `C=C1c2c(Cl)ccc(O)c2C(=O)C2=C(O)[C@]3(O)C(=O)C(C(N)=O)=C(O)[C@@H](N(C)C)[C@@H]3[C@@H](O)[C@H]12.O=C(O)c1cc(S(=O)(=O)O)ccc1O` [MECLAN], the pIC50 in test [1] (fluorescent label: DsRed), in test [1] (fluorescent label: GFP), in test [2] (fluorescent label: DsRed) and in test [2] (fluorescent label: GFP) was above 5.01 each time.
